The record followed here is patent publication US8541444B2, “Triazolopyridine 11-beta hydroxysteroid dehydrogenase type I inhibitors” (Bristol-Myers Squibb Company, priority 2007, dated 2013).

SMILES strings stand for the structures.

The term IC50 denotes the concentration at which inhibition is half-maximal. One may read the inhibition as the change of the read-out against control, counted positive when it falls. Higher therefore signals strong suppression.

Series [1] addresses T1, recombinant human 11beta-HSD1 (Homo sapiens, UniProt P28845).
T1 construct: Full length recombinant human 11β-HSD1 cDNAs and the cDNA encoding human 11β-HSD2 were expressed stably in HEK 293 EBNA cells; made in house; microsome fraction used
Put plainly: 11β-HSD1 SPA enzyme assay (in vitro inhibition of recombinant human 11beta-HSD1). The format is biochemical. The note with it: human 11β-HSD1 microsomes from HEK 293 EBNA cells, 3H-cortisone 40 nM, 4 hrs room temperature. The method, then:
The in vitro inhibition of recombinant human 11beta-HSD1 was determined as follows.
The supernatant was further centrifuged at 105,000×g for […]. The 105,000×g pellet was resuspended in buffer H and centrifuged at 105,000×g for 60 min. […] Aliquots were stored at −80° C. until needed. The protein concentration was measured by the BioRad method using BSA standard.
Compounds were dissolved in DMSO to obtain 10 mM stock concentrations. From the 10 mM stock, the compounds were diluted in DMSO to achieve the concentrations.
11β-HSD1 SPA Enzyme Assay
11β-HSD1 was assayed by Scintillation Proximity assay in a 384-well Perkin Elmer white plate. The dose response of the compounds was determined using 11 half-log dilutions of compound in DMSO in duplicate. To each well, 0.5 μl of compound dilution in DMSO were added. 15 μl of assay buffer (for blanks) or 15 μl of human microsomes in assay buffer were added next and the plates were incubated for 10 min at room temperature. The final microsomal protein concentration was 1.1 μg/assay. Duplicates were in the same plate one row below the other. 10 μl of ^3H-cortisone (final concentration 40 nM) was added to each well and the plate was spun down to mix and bring down the contents to the bottom of the wells. The plates were incubated at room temperature with gentle shaking for 4 hrs. […] Then, 0.5 mg of yttrium silicate SPA beads coupled to anti-cortisol antibody in 20 μl were added to all the wells of plate, which were spun down once more and incubated at room temperature overnight. The plate was read in a TopCount® (1 min/well). Data were uploaded automatically to Tool Set, a Lead Evaluation informatics program for data capture and calculation. Graphs were generated with the Curve Master program.

In series [2] the target is T2, 11beta-HSD1 (Mus musculus, UniProt P50172).
T2 construct: from tissue; host or cells: whole animal: diet induced obese (DIO) mice, Jackson Laboratory
Nature of the series: In vivo inhibition of 11beta-HSD1: DHC to corticosterone conversion in DIO mice. Particulars: 30 mpk oral, plasma corticosterone AUC after DHC 10 mg/kg given 60 minutes post compound. As to the method:
The in vivo inhibition of […] 11beta-HSD1 was determined as follows.
Studies were conducted utilizing diet induced obese (DIO) mice obtained from Jackson Laboratory (ME, USA). These mice were fed a 60% fat diet (Research Diets D12492) soon after weaning and kept on this diet for 24 weeks. These mice were individually housed. […]. The animals continued on this diet and were utilized for experimentation at 30 to 32 weeks of age, at which time these mice weighed 45 to 55 grams.
The basic model of 11-dehydrocorticosterone (DHC) administration to mice to produce corticosterone has been reported in the literature for clinical and preclinical evaluation of the activity of 11β-HSD. […] Plasma was separated and collected and immediately frozen at −20° C. until corticosterone analysis could be assessed.
Plasma Corticosterone was measured using an EIA (IDS AC-14F1). Samples were measured at (1:2) for the −30(or −60 minute) and 0 time point and (1:10) for the 30, 60 and 120 minutes time points. AUC was calculated using Graphpad and the zero timepoint was used as the baseline. One way ANOVA was calculated using Sigmastat. […]
The vehicle utilized for the suspension of the compounds was 0.5% methocel; 0.1% tween 80 in water. […] Compounds were administered in 7.5 ml/kg volumes at final dosages of 0.1 to 300 mg/kg depending on the study and compound evaluated.

A short description of series [3]: Moisture sorption study. The format is physicochemical. Particulars: Form N-1 of the HCl salt; range from about 25 to about 75% RH at 25° C. The method, then:
Moisture sorption isotherms were collected in a VTI SGA-100 Symmetric Vapor Analyzer using approximately 10 mg of sample. The sample was dried at 60° C. until the loss rate of 0.0005 wt %/min was obtained for 10 minutes. The sample was tested at 25° C. and 3 or 4, 5, 15, 25, 35, 45, 50, 65, 75, 85, and 95% RH. Equilibration at each RH was reached when the rate of 0.0003 wt %/min for 35 minutes was achieved or a maximum of 600 minutes.

T1 sequence (P28845 whole entry): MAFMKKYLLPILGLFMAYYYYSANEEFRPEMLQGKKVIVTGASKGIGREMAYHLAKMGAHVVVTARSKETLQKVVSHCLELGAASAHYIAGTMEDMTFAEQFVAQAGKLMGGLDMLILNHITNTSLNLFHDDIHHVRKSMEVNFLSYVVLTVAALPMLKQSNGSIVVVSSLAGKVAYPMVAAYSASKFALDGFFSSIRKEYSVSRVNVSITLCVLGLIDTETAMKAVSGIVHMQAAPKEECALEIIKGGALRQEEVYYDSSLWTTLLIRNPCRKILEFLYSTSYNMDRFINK
T2 sequence (P50172 whole entry): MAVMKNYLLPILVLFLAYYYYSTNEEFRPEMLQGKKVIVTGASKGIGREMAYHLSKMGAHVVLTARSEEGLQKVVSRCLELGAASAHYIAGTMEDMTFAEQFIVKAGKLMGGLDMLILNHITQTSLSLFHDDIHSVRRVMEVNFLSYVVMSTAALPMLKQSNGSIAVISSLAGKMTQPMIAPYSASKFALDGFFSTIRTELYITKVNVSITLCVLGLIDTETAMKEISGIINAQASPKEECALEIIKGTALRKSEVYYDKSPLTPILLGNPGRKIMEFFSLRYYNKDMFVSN

Consider `CC(C)(O)c1cccn2c(C3(c4ccc(Cl)cc4)CC3)nnc12` [Example 1, 2-(3-(1-(4-Chlorophenyl)cyclopropyl)-[1,2,4]triazolo[4,3-a]pyridin-8-yl) propan-2-ol], for which the IC50 in series [1] turned out to be 2.3 nM. The inhibition at 30 mg/kg in series [2] came to 53%.
On to `CC(C)(O)c1cccn2c(C3(c4ccc(Cl)cc4)CC3)nnc12.Cl` [Example 1G, 2-(3-(1-(4-Chlorophenyl)cyclopropyl)-[1,2,4]triazolo[4,3-a]pyridin-8-yl)propan-2-ol HCl Salt], for which the “hygroscopicity (moisture sorption isotherm)” value in series [3] is “non-hygroscopic”.
Consider `CC(C)(O)c1cccc2c(C3(c4ccc(Cl)cc4)CC3)nnn12` [Example 6, 2-(3-(1-(4-Chlorophenyl)cyclopropyl)-[1,2,3]-triazolo[1,5-a]pyridin-7-yl) propan-2-ol], for which the IC50 in series [1] was 20 nM.
Consider `CC(C)(O)c1cccn2c(C3(c4ccc(Cl)cc4)CCC3)nnc12` [Example 11], for which 30 mg/kg produced 69% inhibition in series [2].
In the case of `CC(C)(O)c1cccn2c(C3(c4ccc(Cl)c(Cc5nnn[nH]5)c4)CC3)nnc12` [Example 42], in series [1], the IC50 amounted to 72 nM.
With `CC(C)(O)c1cccn2c(C3(c4ccc(-c5ccc(F)cc5)cc4)CC3)nnc12` [Example 51], in series [1], the IC50 stood at 0.4 nM.
`CC(C)(O)c1cccn2c(C3(c4ccc(Cl)cc4F)CC3)nnc12` [Example 54]: the IC50 in series [1] is 0.7 nM.
On the same count and under the same terms, under `CC(C)(c1cccn2c(C3(c4ccc(Cl)cc4)CCC3)nnc12)c1nnnn1CCC#N` [Example 59] stands 5490 nM; under `CC(C)(O)c1cccn2c(C3(C(=O)O)CC3)nnc12` [Example 80], 7700 nM; under `CN(C)C(=O)c1ccc(C2(c3nnc4c(C(C)(C)O)cccn34)CC2)cc1` [Example 86], 35 nM.
For `Cc1ccc(S(=O)(=O)C2(c3nnc4c(C(C)(C)O)cccn34)CC2)cc1C` [Example 90], the IC50 in series [1] was determined as 1380 nM.
Same read-out and setting: under `CC(C)(O)c1cccn2c(C3(c4nc(-c5ccccc5)c[nH]4)CC3)nnc12` [Example 104] stands 191 nM.
The same measure, in the same setting: under `CC(C)(O)c1cccn2c(C3(c4nc(-c5ccc(F)cc5)cs4)CC3)nnc12` [Example 109] stands 0.6 nM; under `CC(C)(O)c1cccn2c(C3(c4nnn(Cc5ccc(F)cc5)n4)CC3)nnc12` [Example 110], 104 nM; under `CC(C)(O)c1cccn2c(C3(c4nc(-c5ccc(Cl)cc5)cs4)CC3)nnc12` [Example 111], 0.5 nM.
`CC(C)(O)c1cccn2c(C3(c4nnn(Cc5ccccc5)n4)CC3)nnc12` [Example 112]: in series [1], the IC50 was determined as 2820 nM.
